Assay [1] deals with HCT116 (mlh−). The experiment in a line: siRNA inhibition of p53 and REV functions, alamar blue growth inhibition. It is filed as cell-based, human. As to the method: (§1) siRNA specific for different genes is purchased from Dharmacon (Thermo. Fisher Scientific Dharmacon Products, Lafayette, Colo. 80026) and the protocol recommended by the supplier is utilized. Confluent cells are trypsinized and 5000 cells are seeded in a well in the presence or absence of siRNA in 100 μL medium. The cells are incubated with siRNA for two days. A non-covalent DNA binding agent of the invention is added in a 10 μL volume and incubated for another 48 hours. After treatment with the agent, the medium is replaced with 1% alamar blue containing medium to measure fluorescence after two hours.
as §1, with “from Dharmacon (Thermo Fisher Scientific” for “from Dharmacon (Thermo. Fisher Scientific”, “two hours. […] The results are presented in FIGS. 14-18 (SEQ ID NO:3-12, respectively) and Table 7.” for “two hours.”
On the technique in general: Resazurin is reduced to fluorescent resorufin, in cell work by metabolically active cells.

Assay [2] concerns U2OS Wild type. The experiment in a line: siRNA inhibition of MMR, p53 and REV functions, alamar blue growth inhibition. It is filed as cell-based, human. How it is done:
as §1
as §1, with “from Dharmacon (Thermo Fisher Scientific” for “from Dharmacon (Thermo. Fisher Scientific”, “two hours. […] The results are presented in FIGS. 14-18 (SEQ ID NO:3-12, respectively) and Table 7.” for “two hours.”

Assay [3] deals with Wild type yeast. In words: Alamar Blue cell survival assay in yeast cells. It is filed as cell-based. As to the method: (§2) The cells are diluted 100-fold in yeast complete medium. 100 μL of diluted cells are seeded in 96 well plates with or without a non-covalent DNA binding compound and incubated for 24 hours at 30° C. The following day, an equal volume of yeast complete medium containing 1% alamar blue is added and incubated at 30° C. for two hours. Fluorescence intensity is measured in a fluorescent reader to calculate the inhibition effect of non-covalent DNA binding agents in mutant and wild type yeast cells.
(§3) Yeast cells that carry mutations in different genes involved in homologous recombination (rad 50, rad51, rad52, and rad57) and nucleotide excision/double strand repair (rad1) are grown to stationary culture overnight.

Assay [4] has as its system yeast rad1 mutation. In words: Alamar Blue cell survival assay in yeast cells. It is filed as cell-based. How it is done: as §2, §3
For assay [5], the system named is yeast rad50 mutation. The experiment in a line: Alamar Blue cell survival assay in yeast cells. It is filed as cell-based. As to the method:
as §2, §3

The test system of assay [6] is yeast rad51 mutation. In words: Alamar Blue cell survival assay in yeast cells. It is filed as cell-based. As to the method:
as §2, §3

Assay [7] relates to yeast rad52 mutation. In words: Alamar Blue cell survival assay in yeast cells. It is filed as cell-based. As to the method: as §2, §3

`CC[C@@]1(O)C(=O)OCc2c1cc1n(c2=O)Cc2cc3ccccc3nc2-1` [Camptothecin, (S)-4-ethyl-4-hydroxy-1H-pyrano[3′,4′:6,7]indolizino[1,2-b]quinoline-3,14-(4H,12H)-dione, reference compound]: the IC50 in assay [1] (Homo sapiens, HCT-116, no siRNA knock out, read-out: IC50, Control) was 250 nM. Also, the “Fold improvement in IC50, p53” value in assay [1] (p53 siRNA vs control) is listed as 1.3 fold. The “Fold improvement in IC50, rev” value in assay [1] (rev siRNA vs control) is listed as 1.7 fold.
Turning to `COc1cccc2c1C(=O)c1c(O)c3c(c(O)c1C2=O)C[C@@](O)(C(=O)CO)C[C@@H]3OC1CC(N)C(O)C(C)O1` (stereo partly drawn) [Doxorubicin, (8S,10S)-10-(4-amino-5-hydroxy-6-methyl-tetrahydro-2H-pyran-2-yloxy)-6,8,11-trihydroxy-8-(2-hydroxyacetyl)-1-methoxy-7,8,9,10-tetrahydrotetracene-5,12-dione, reference compound], the IC50 in assay [2] (Homo sapiens, no siRNA knock out, read-out: IC50, Control) came to 700 nM. Besides, the “Fold improvement in IC50, mlh1” value in assay [2] (mlh1 siRNA vs control) was 0.23 fold. Also, the “Fold improvement in IC50, p53” value in assay [2] (p53 siRNA vs control) was found to be 0.7 fold. For the same molecule, in assay [2] (rev siRNA vs control), the “Fold improvement in IC50, rev” value amounted to 0.35 fold.
In the case of `COc1cc2c(cc1OCCCCOc1cc(-c3ccc(F)cc3)nc(C)n1)N=C[C@@H]1CCCN1C2=O` [NSC 723732], the IC50 in assay [3] is > 250 µM; in assay [4], > 250 µM; in assay [5], > 250 µM; in assay [6], 100 µM; in assay [7], 105 µM.

Broadly, the IC50 is the concentration needed to halve the response being measured.

Source of the values: patent publication US9744175B2, “Compositions of combinations of non-covalent DNA binding agents and anti-cancer and/or anti-inflammatory agents and their use in disease treatment” (INDUS PHARMACEUTICALS, INC., priority 2012, dated 2017).
